Key:
[1] = Cytotoxicity in MDBK cells assessed as reduction in cell viability; type: cell-based, Bos taurus; conditions: cattle
[2] = system: Bovine viral diarrhea virus 1; assay: Antiviral activity against BVDV1 Nose infected in MDBK cells assessed as inhibition of virus replication-induced cell destruction; type: functional, organism-based; conditions: Bovine viral diarrhea virus isolates and strains
[3] = Selectivity index, ratio of CC50 for MDBK cells to EC50 for antiviral activity against BVDV1 Nose

Row | Compound | CC50 [1] | EC50 [2] | Ratio CC50/EC50 [3]
1 | CC[Si](CC)(c1ccc(OCC(=O)C(C)(C)C)cc1)c1ccc(OCC(=O)C(C)(C)C)cc1 | > 100 µM | 6.2 µM | 
2 | CCC(CC)(c1ccc(NCC(O)C(C)(C)C)c(C)c1)c1ccc(OC[C@@H](O)CO)c(C)c1 (stereo partly drawn) | 43 µM | 25 µM | 1.72
3 | CCC(CC)(c1ccc(NCC(=O)C(C)(C)C)c(C)c1)c1ccc(OCC(=O)C(C)(C)C)c(C)c1 | 82 µM | 8.9 µM | 9.21
4 | CCC(CC)(c1ccc(O)cc1)c1ccc(O)cc1 | 39 µM | 10 µM | 3.9
5 | Cc1cc(C2(c3ccc(OCC(=O)C(C)(C)C)c(C)c3)CCC2)ccc1OCC(=O)C(C)(C)C | > 100 µM | 6.3 µM | 
6 | Nc1ccc(C2(c3ccc(O)cc3)CCCCC2)cc1 | 42 µM | > 42 µM | 
7 | Cc1cc(C2(c3ccc(OCC(=O)C(C)(C)C)c(C)c3)CCCC2)ccc1OCC(=O)C(C)(C)C | > 100 µM | 13 µM | 
8 | CC[Si](CC)(c1ccc(O)cc1)c1ccc(OCC(=O)C(C)(C)C)cc1 | 46.8 µM | 8 µM | 5.85
9 | Cc1cc(C(C)(C)c2ccc(OCC(=O)C(C)(C)C)c(C)c2)ccc1OCC(=O)C(C)(C)C | > 100 µM | 12 µM | 
10 | CCC(CC)(c1ccc(O)c(C)c1)c1ccc(OCC(=O)C(C)(C)C)c(C)c1 | 5.23 µM | 8.6 µM | 
11 | Cc1cc([Si](C)(C)c2ccc(OCC(=O)C(C)(C)C)c(C)c2)ccc1OCC(=O)C(C)(C)C | > 100 µM | 12.8 µM | 
12 | CCN(CC)C(=O)Oc1ccc(C(CC)(CC)c2ccc(NC(C)=O)c(C)c2)cc1C | 50 µM | 10 µM | 5
13 | CCC(CC)(c1ccc(OCC(=O)C(C)(C)C)c(C)c1)c1ccc(N(CC(=O)C(C)(C)C)Cc2ccccc2)c(C)c1 | > 100 µM | 28 µM | 
14 | CC[Si](CC)(c1ccc(OCC(=O)C(C)(C)C)c(C)c1)c1ccc(OCC(=O)C(C)(C)C)c(C)c1 | > 100 µM | 8.4 µM | 

— ChEMBL document CHEMBL1782006, “Discovery of diphenylmethane analogs as anti-bovine diarrhea viral agents” (Bioorg Med Chem Lett, 2009)
